Literature values, collected in patent publication US20170020837A1, “FUMARATE COMPOUNDS, PHARMACEUTICAL COMPOSITIONS THEREOF, AND METHODS OF USE” (priority 2015, published 2017).

Question: For COC(=O)/C=C/C(=O)OC [DMF, dimethylfumarate], which aqueous solubility is on record?
Answer: poor
